From ChEMBL document CHEMBL5321290, “Discovery of the Diphenyl 6-Oxo-1,6-dihydropyridazine-3-carboxylate/carboxamide Analogue J27 for the Treatment of Acute Lung Injury and Sepsis by Targeting JNK2 and Inhibiting the JNK2-NF-κB/MAPK Pathway” (J Med Chem, 2023) come the findings set out here.

Test [1] deals with J774.A1. The experiment in a line: Antiinflammatory activity against mouse J774A.1 cells assessed as inhibition of LPS-stimulated IL6 release measured at 10 uM after 30 mins by ELISA relative to control. Type of test: functional. As to conditions: for inhibition at 10 µM: J774.A1, 0.5 h. (In general: ELISA stands for enzyme-linked immunosorbent assay.)
Test [2] has as its system J774.A1. Put plainly: Antiinflammatory activity against mouse J774A.1 cells assessed as inhibition of LPS-stimulated TNFalpha release measured at 10 uM after 30 mins by ELISA relative to control. As to conditions: for inhibition at 10 µM: J774.A1, 0.5 h. Type of test: functional.

Each structure is given as a SMILES string. Active and inactive are the calls of the source. The calls are words filed in the database; no cut-off is given here.

By inhibition is commonly meant the relative decrease from the control value, in per cent. With `COc1ccc(-n2nc(C(=O)Nc3ccc(Oc4ccnc5cc(OC)c(OC)cc45)cc3)c(C)cc2=O)cc1`, in test [1], the inhibition entry is “inactive”. The inhibition at 10 µM in test [2] was found to be 12.1%.

As for `CCc1ccccc1-n1nc(C(=O)Nc2ccc(Oc3ccnc4cc(OC)c(OC)cc34)cc2)c(C)cc1=O`, the figures for the inhibition at 10 µM in test [1] and in test [2] were 55.1% and 27.9%, respectively.

With `CCc1ccccc1-n1nc(C(=O)Nc2cccc(Oc3ncnc4cc(OC)c(OC)cc34)c2)c(C)cc1=O`, the inhibition entry in test [1] and in test [2] was “inactive” each time.

For the compound `COc1cc2ncnc(Oc3ccc(NC(=O)c4nn(-c5ccc(F)cc5)c(=O)cc4C)cc3)c2cc1OC`, the inhibition at 10 µM in test [1] is 20.6%; in test [2] it was 70.1%.

As for `COc1ccc(-n2nc(C(=O)Nc3cccc(Oc4ncnc5cc(OC)c(OC)cc45)c3)c(C)cc2=O)cc1`, the inhibition at 10 µM in test [1] was 7.64%. Also, the inhibition result in test [2] is “inactive”.

For `COc1cc2nccc(Oc3cccc(NC(=O)c4nn(-c5ccccc5)c(=O)cc4C)c3)c2cc1OC`, in test [1], the inhibition entry is “inactive”. Further, in test [2], the inhibition at 10 µM was 0.35%.

For the compound `COc1cc2ncnc(Nc3ccc(OC(=O)c4nn(-c5ccccc5)c(=O)cc4C)c(C)c3)c2cc1OC`, in test [1], the inhibition at 10 µM worked out at 23.9%. Besides, the inhibition result in test [2] was “inactive”.

Regarding `COc1cc2ncnc(Nc3ccc(F)c(OC(=O)c4nn(-c5ccccc5)c(=O)cc4C)c3)c2cc1OC`, the values for the inhibition at 10 µM in test [1] and in test [2] were 32.1% and 49.6%, respectively.

Take `COc1ccc(-n2nc(C(=O)Oc3cc(Nc4ncnc5cc(OC)c(OC)cc45)ccc3F)c(C)cc2=O)cc1`: the inhibition at 10 µM in test [1] was 31.9%. For the same compound, the inhibition result in test [2] is “inactive”.

For the compound `COc1cc2nccc(Oc3cccc(NC(=O)c4nn(-c5ccc(F)cc5)c(=O)cc4C)c3)c2cc1OC`, the inhibition at 10 µM in test [1] worked out at 38%; in test [2], 20.6%.

Turning to `COc1cc2ncnc(Nc3ccc(F)c(OC(=O)c4nn(-c5ccc(C)cc5)c(=O)cc4C)c3)c2cc1OC`, the inhibition at 10 µM stood at 48% in test [1] and 34.9% in test [2].

Take `COc1ccc(-n2nc(C(=O)Nc3ccc(Oc4ncnc5cc(OC)c(OC)cc45)cc3)c(C)cc2=O)cc1`: in test [1], the inhibition result is “inactive”. The inhibition at 10 µM in test [2] came to 57.5%.

Take `COc1cc2ncnc(Oc3cccc(NC(=O)c4nn(-c5ccc(C)cc5)c(=O)cc4C)c3)c2cc1OC`: the inhibition at 10 µM in test [1] is 47.3%. Also, the inhibition entry in test [2] is “inactive”.

On to `COc1cc2nccc(Oc3ccc(NC(=O)c4nn(-c5ccccc5)c(=O)cc4C)cc3)c2cc1OC`, for which the inhibition entry in test [1] was “inactive”. The inhibition at 10 µM in test [2] turned out to be 52%.

Turning to `CCc1ccc(-n2nc(C(=O)Nc3ccc(Oc4ccnc5cc(OC)c(OC)cc45)cc3)c(C)cc2=O)cc1`, the results for the inhibition at 10 µM in test [1] and in test [2] were 34.9% and 61.9%, respectively.

Consider `CCc1ccc(-n2nc(C(=O)Nc3cccc(Oc4ncnc5cc(OC)c(OC)cc45)c3)c(C)cc2=O)cc1`, for which the inhibition at 10 µM in test [1] turned out to be 39%. Further, the inhibition result in test [2] was “inactive”.

In the case of `CCc1ccccc1-n1nc(C(=O)Oc2cc(Nc3ncnc4cc(OC)c(OC)cc34)ccc2F)c(C)cc1=O`, the inhibition result in test [1] and in test [2] was “inactive” throughout.

As for `COc1cc2ncnc(Oc3cccc(NC(=O)c4nn(-c5ccccc5)c(=O)cc4C)c3)c2cc1OC`, the inhibition result in test [1] and in test [2] was “inactive” throughout.

Consider `COc1cc2ncnc(Oc3ccc(NC(=O)c4nn(-c5ccc(C)cc5)c(=O)cc4C)cc3)c2cc1OC`, for which the inhibition at 10 µM in test [1] is 63%; in test [2], 64%.

For `CCc1ccccc1-n1nc(C(=O)Nc2cccc(Oc3ccnc4cc(OC)c(OC)cc34)c2)c(C)cc1=O`, the figures for the inhibition at 10 µM in test [1] and in test [2] were 25.1% and 63.4%, respectively.

In the case of `COc1cc2nccc(Oc3cccc(NC(=O)c4nn(-c5ccc(C)cc5)c(=O)cc4C)c3)c2cc1OC`, the inhibition entry in test [1] and in test [2] was “inactive” in each case.

Regarding `CCc1ccc(-n2nc(C(=O)Oc3cc(Nc4ncnc5cc(OC)c(OC)cc45)ccc3F)c(C)cc2=O)cc1`, the inhibition at 10 µM in test [1] is 38.3%; in test [2], 21.8%.

In the case of `COc1cc2nccc(Oc3ccc(NC(=O)c4nn(-c5ccc(F)cc5)c(=O)cc4C)cc3)c2cc1OC`, the inhibition at 10 µM in test [1] is 5.11%. Also, the inhibition entry in test [2] was “inactive”.

With `CCc1ccccc1-n1nc(C(=O)Nc2ccc(Oc3ncnc4cc(OC)c(OC)cc34)cc2)c(C)cc1=O`, the values for the inhibition at 10 µM in test [1] and in test [2] were 18.4% and 58%, respectively.

With `COc1ccc(-n2nc(C(=O)Nc3cccc(Oc4ccnc5cc(OC)c(OC)cc45)c3)c(C)cc2=O)cc1`, the inhibition result in test [1] and in test [2] was “inactive” throughout.

With `COc1cc2ncnc(Nc3ccc(C)c(OC(=O)c4nn(-c5ccccc5)c(=O)cc4C)c3)c2cc1OC`, the inhibition at 10 µM in test [1] came out at 20.7%. Moreover, the inhibition result in test [2] was “inactive”.

For `COc1cc2ncnc(Nc3ccc(F)c(OC(=O)c4nn(-c5ccc(F)cc5)c(=O)cc4C)c3)c2cc1OC`, the values for the inhibition at 10 µM in test [1] and in test [2] were 46.5% and 38.8%, respectively.

In the case of `COc1cc2ncnc(Oc3cccc(NC(=O)c4nn(-c5ccc(F)cc5)c(=O)cc4C)c3)c2cc1OC`, the inhibition at 10 µM in test [1] is 16.1%. Also, the inhibition entry in test [2] is “inactive”.

Turning to `COc1cc2ncnc(Oc3ccc(NC(=O)c4nn(-c5ccccc5)c(=O)cc4C)cc3)c2cc1OC`, the inhibition at 10 µM came to 54.8% in test [1] and 46.9% in test [2].
